According to patent publication US11786528B2, “Pyrazolopyrimidine compounds as adenosine receptor antagonists” (EXSCIENTIA LTD., priority 2018, dated 2023):

Legend:
[1] = biological target: human adenosine receptor sub-type A2a (wild type) (Homo sapiens (Human), UniProt P29274); test: Affinity for human adenosine A2a receptor by surface plasmon resonance (SPR); format: binding
Method: (§1) Affinity for the human adenosine receptor sub-types (A2a, A2b, A1 and A3) was determined by surface plasmon resonance (SPR) using published methodologies (see below for further details).
(§2) Affinity for the human adenosine receptor sub-types (A2a, A2b, A1 and A3) was determined by SPR as described in Aristotelous, T., et al, Methods in Enzymology (2015), Volume 556, Chapter 23, pages 499-525 and Congreve, M., et al, J Med Chem (2012), Vol. 55, pages 1898-1903. The method used was analogous to the method used in Congreve, M., et al (see supplementary page S10) for the A2a receptor, but the wild type receptor was used rather than the proprietary StaR form.

[2] = biological target: human A2a receptors (HEK 293 transfected) (Homo sapiens (Human), UniProt P29274); test: Inhibition of cAMP release in HEK-A2aR cells (HTRF, LANCE Ultra cAMP); format: cell-based; details: 3 nM NECA, 10 min
Sequence of human A2a receptors (HEK 293 transfected) (P29274 whole entry): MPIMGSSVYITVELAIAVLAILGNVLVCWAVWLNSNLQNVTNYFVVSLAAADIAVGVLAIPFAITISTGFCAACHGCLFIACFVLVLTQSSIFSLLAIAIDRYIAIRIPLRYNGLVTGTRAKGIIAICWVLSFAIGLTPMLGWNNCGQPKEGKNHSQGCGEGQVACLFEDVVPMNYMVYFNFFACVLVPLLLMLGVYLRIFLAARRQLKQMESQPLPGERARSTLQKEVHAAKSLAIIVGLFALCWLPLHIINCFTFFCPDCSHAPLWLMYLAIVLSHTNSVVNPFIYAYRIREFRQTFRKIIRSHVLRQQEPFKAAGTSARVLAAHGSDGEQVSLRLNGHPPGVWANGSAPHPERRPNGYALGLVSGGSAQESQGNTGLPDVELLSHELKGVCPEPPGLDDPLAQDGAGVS
Method: Functional activity was measured by inhibition of cAMP release in HEK cells (see below for further details).
To screen A2a receptor inhibitors by HTRF technology, about 500 HEK-A2aR cells (HEK 293 transfected with human A2a receptors) were treated with inhibitors in presence of stimulation buffer (1×HBSS, 5 mM HEPES, 0.1% BSA stabilizer, pH 7.4) supplemented with 30 μM phosphodiesterase inhibitor Rolipram (to prevent cAMP degradation). This stimulation was immediately followed by treatment with 3 nM standard A2aR agonist (NECA) for 10 min under gentle shaking at room temperature. After that, inhibition of cAMP release was determined directly using LANCE Ultra cAMP assay (Perkin Elmer TRF0263).
All analysis was performed using GraphPad Prism 7.0 (GraphPad Software, San Diego, USA). Results are given, as EC50 (M).

[3] = biological target: human adenosine receptor sub-type A1 (Homo sapiens (Human), UniProt P30542); test: Affinity for human adenosine A1 receptor by SPR; format: binding; details: for IC50: SPR, human A1 receptor; for Relative selectivity for A2a v. A1: from SPR IC50 values, rounded to 2 significant figures
Sequence of human adenosine receptor sub-type A1 (P30542 whole entry): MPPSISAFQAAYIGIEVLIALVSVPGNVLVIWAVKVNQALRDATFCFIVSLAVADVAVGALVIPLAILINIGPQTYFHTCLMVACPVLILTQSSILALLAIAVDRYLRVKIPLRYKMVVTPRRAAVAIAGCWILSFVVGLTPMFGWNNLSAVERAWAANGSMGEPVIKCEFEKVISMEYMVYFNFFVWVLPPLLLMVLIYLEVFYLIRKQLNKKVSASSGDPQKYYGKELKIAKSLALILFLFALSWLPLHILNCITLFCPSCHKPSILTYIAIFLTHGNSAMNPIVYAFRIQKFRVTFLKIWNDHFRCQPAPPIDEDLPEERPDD
Method: as §1, §2

[4] = biological target: human adenosine receptor sub-type A2b (Homo sapiens (Human), UniProt P29275); test: Affinity for human adenosine A2b receptor by SPR; format: binding; details: for IC50: SPR, human A2b receptor; for Relative selectivity for A2a v. A2b: from SPR IC50 values, rounded to 2 significant figures
Sequence of human adenosine receptor sub-type A2b (P29275 whole entry): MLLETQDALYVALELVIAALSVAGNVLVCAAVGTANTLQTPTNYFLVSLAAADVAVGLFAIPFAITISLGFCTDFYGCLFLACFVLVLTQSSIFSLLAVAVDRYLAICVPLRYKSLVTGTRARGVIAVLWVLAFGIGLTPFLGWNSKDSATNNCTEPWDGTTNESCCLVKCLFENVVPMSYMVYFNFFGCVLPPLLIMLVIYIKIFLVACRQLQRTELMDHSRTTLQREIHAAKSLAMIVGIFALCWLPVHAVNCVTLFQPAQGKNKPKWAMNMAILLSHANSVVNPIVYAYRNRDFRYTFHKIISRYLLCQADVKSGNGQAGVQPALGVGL
Method: as §1, §2

[5] = biological target: human adenosine receptor sub-type A3 (Homo sapiens (Human), UniProt P0DMS8); test: Affinity for human adenosine A3 receptor by SPR; format: binding; details: for IC50: SPR, human A3 receptor; for Relative selectivity for A2a v. A3: from SPR IC50 values, rounded to 2 significant figures
Sequence of human adenosine receptor sub-type A3 (P0DMS8 whole entry): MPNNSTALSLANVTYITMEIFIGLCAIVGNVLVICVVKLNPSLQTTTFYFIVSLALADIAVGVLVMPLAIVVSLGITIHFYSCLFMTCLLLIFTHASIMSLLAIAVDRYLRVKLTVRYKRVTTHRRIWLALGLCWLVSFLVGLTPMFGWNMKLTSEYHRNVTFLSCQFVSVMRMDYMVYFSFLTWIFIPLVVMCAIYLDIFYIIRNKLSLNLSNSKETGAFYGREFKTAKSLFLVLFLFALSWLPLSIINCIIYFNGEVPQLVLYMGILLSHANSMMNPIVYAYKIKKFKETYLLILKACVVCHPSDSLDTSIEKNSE
Method: as §1, §2

Sequence of human adenosine receptor sub-type A2a (wild type) (P29274 whole entry): as the sequence (P29274 whole entry) above

Row | IC50 [1] [µM] | EC50 [2] [µM] | SMILES | also measured
1 | 0.054 | 0.226 | Nc1nc(-c2ccsn2)nc2nn(Cc3ccc(C(F)(F)F)cc3)cc12 [Example 17, 6-(1,2-thiazol-3-yl)-2-{[4-(trifluoromethyl)phenyl]methyl}-2H-pyrazolo[3,4-d]pyrimidin-4-amine] | –
2 | 0.0057 | 0.056 | Cc1ccccc1Cn1cc2c(N)nc(-c3cnccn3)nc2n1 [Example 31, 2-[(2-methylphenyl)methyl]-6-(pyrazin-2-yl)-2H-pyrazolo[3,4-d]pyrimidin-4-amine] | –
3 | 0.029 | – | Cc1ccc(Cn2cc3c(N)nc(-c4ccsn4)nc3n2)cn1 [Example 23, 2-[(6-methylpyridin-3-yl)methyl]-6-(1,2-thiazol-3-yl)-2H-pyrazolo[3,4-d]pyrimidin-4-amine] | –
4 | 0.0051 | 0.235 | COc1cccc(Cn2cc3c(N)nc(-c4ccsn4)nc3n2)c1 [Example 10, 2-[(3-methoxyphenyl)methyl]-6-(1,2-thiazol-3-yl)-2H-pyrazolo[3,4-d]pyrimidin-4-amine] | IC50 [3]: 0.68 µM; Relative selectivity for A2a v. A1 [3]: 130; IC50 [4]: 0.69 µM; Relative selectivity for A2a v. A2b [4]: 140; IC50 [5]: 60 µM; Relative selectivity for A2a v. A3 [5]: 12000
5 | 0.0015 | 0.03 | Nc1nc(-c2cnccn2)nc2nn(Cc3cccc(Cl)c3)cc12 [Example 36, 2-[(3-chlorophenyl)methyl]-6-(pyrazin-2-yl)-2H-pyrazolo[3,4-d]pyrimidin-4-amine] | –
6 | 0.047 | – | COc1cccc(Cn2cc3c(N)nc(-c4nc(C)cs4)nc3n2)c1 [Example 5, 2-[(3-methoxyphenyl)methyl]-6-(4-methyl-1,3-thiazol-2-yl)-2H-pyrazolo[3,4-d]pyrimidin-4-amine] | –
7 | 0.0049 | 0.4 | COc1cccc(Cn2cc3c(N)nc(-c4ncco4)nc3n2)c1 [Example 4, 2-[(3-methoxyphenyl)methyl]-6-(1,3-oxazol-2-yl)-2H-pyrazolo[3,4-d]pyrimidin-4-amine] | –
8 | 0.0079 | 0.011 | Cc1ccc(Cn2cc3c(N)nc(-c4ccsn4)nc3n2)cc1C(F)(F)F [Example 24, 2-{[4-methyl-3-(trifluoromethyl)phenyl]methyl}-6-(1,2-thiazol-3-yl)-2H-pyrazolo[3,4-d]pyrimidin-4-amine] | IC50 [3]: 1.42 µM; Relative selectivity for A2a v. A1 [3]: 180; IC50 [4]: 25.6 µM; Relative selectivity for A2a v. A2b [4]: 3200; IC50 [5]: 49.9 µM; Relative selectivity for A2a v. A3 [5]: 6300
9 | 0.0083 | 0.009 | Nc1nc(-c2ccsn2)nc2nn(Cc3cccc(OC(F)(F)F)c3)cc12 [Example 16, 6-(1,2-thiazol-3-yl)-2-{[3-(trifluoromethoxy)phenyl]methyl}-2H-pyrazolo[3,4-d]pyrimidin-4-amine] | –
10 | 0.253 | – | COc1ccc(Cn2cc3c(N)nc(-c4cnccn4)nc3n2)cc1 [Example 15, 2-[(4-methoxyphenyl)methyl]-6-(pyrazin-2-yl)-2H-pyrazolo[3,4-d]pyrimidin-4-amine] | –
11 | 0.024 | – | COc1cccc(Cn2cc3c(N)nc(-c4snnc4C)nc3n2)c1 [Example 7, 2-[(3-methoxyphenyl)methyl]-6-(4-methyl-1,2,3-thiadiazol-5-yl)-2H-pyrazolo[3,4-d]pyrimidin-4-amine] | –
12 | 0.027 | – | Nc1nc(-c2ccsn2)nc2nn(Cc3ccccn3)cc12 [Example 22, 2-[(pyridin-2-yl)methyl]-6-(1,2-thiazol-3-yl)-2H-pyrazolo[3,4-d]pyrimidin-4-amine] | –
13 | 0.162 | – | COc1cccc(Cn2cc3c(N)nc(-c4cc(C)no4)nc3n2)c1 [Example 6, 2-[(3-methoxyphenyl)methyl]-6-(3-methyl-1,2-oxazol-5-yl)-2H-pyrazolo[3,4-d]pyrimidin-4-amine] | –
14 | 0.067 | – | Nc1nc(-c2ccsn2)nc2nn(Cc3nccs3)cc12 [Example 34, 2-[(1,3-thiazol-2-yl)methyl]-6-(1,2-thiazol-3-yl)-2H-pyrazolo[3,4-d]pyrimidin-4-amine] | –
15 | 0.014 | 0.054 | Cc1ccc(Cn2cc3c(N)nc(-c4nccs4)nc3n2)cc1 [Example 14, 2-[(4-methylphenyl)methyl]-6-(1,3-thiazol-2-yl)-2H-pyrazolo[3,4-d]pyrimidin-4-amine] | –
16 | 0.061 | – | Nc1nc(-c2ccsn2)nc2nn(Cc3cccc(O)c3)cc12 [Example 42, 3-{[4-amino-6-(1,2-thiazol-3-yl)-2H-pyrazolo[3,4-d]pyrimidin-2-yl]methyl}phenol] | –

Row | IC50 [1] [µM] | EC50 [2] [µM] | SMILES | also measured
17 | 0.01 | 0.014 | Cc1ccccc1Cn1cc2c(N)nc(-c3ccsn3)nc2n1 [Example 32, 2-[(2-methylphenyl)methyl]-6-(1,2-thiazol-3-yl)-2H-pyrazolo[3,4-d]pyrimidin-4-amine] | –
18 | 0.037 | – | Nc1nc(-c2ccsn2)nc2nn(Cc3cccc(CO)c3)cc12 [Example 46, [3-[(4-amino-6-(1,2-thiazol-3-yl)-pyrazolo[3,4-d]pyrimidin-2-yl)methyl]phenyl]methanol] | IC50 [3]: > 100 µM; Relative selectivity for A2a v. A1 [3]: >2700; IC50 [4]: > 100 µM; Relative selectivity for A2a v. A2b [4]: >2700; IC50 [5]: > 100 µM; Relative selectivity for A2a v. A3 [5]: >2700
19 | 0.015 | 0.128 | Cc1ccc(Cn2cc3c(N)nc(-c4ccsn4)nc3n2)cc1 [Example 13, 2-[(4-methylphenyl)methyl]-6-(1,2-thiazol-3-yl)-2H-pyrazolo[3,4-d]pyrimidin-4-amine] | –
20 | 0.027 | 2.16 | Nc1nc(-c2nccs2)nc2nn(Cc3nccs3)cc12 [Example 33, 6-(1,3-thiazol-2-yl)-2-[(1,3-thiazol-2-yl)methyl]-2H-pyrazolo[3,4-d]pyrimidin-4-amine] | –
21 | 0.0032 | 0.013 | Nc1nc(-c2cnccn2)nc2nn(Cc3cccc(C(F)(F)F)c3)cc12 [Example 28, 6-(pyrazin-2-yl)-2-{[3-(trifluoromethyl)phenyl]methyl}-2H-pyrazolo[3,4-d]pyrimidin-4-amine] | –
22 | 0.0028 | 0.123 | Cc1cccc(Cn2cc3c(N)nc(-c4ncco4)nc3n2)c1 [Example 26, 2-[(3-methylphenyl)methyl]-6-(1,3-oxazol-2-yl)-2H-pyrazolo[3,4-d]pyrimidin-4-amine] | –
23 | 0.005 | 0.004 | Cc1ccc(Cn2cc3c(N)nc(-c4ccsn4)nc3n2)cc1C [Example 21, 2-[(3,4-dimethylphenyl)methyl]-6-(1,2-thiazol-3-yl)-2H-pyrazolo[3,4-d]pyrimidin-4-amine] | –
24 | 0.041 | – | Nc1nc(-c2cnccn2)nc2nn(Cc3cccc(O)c3)cc12 [Example 3, 3-{[4-amino-6-(pyrazin-2-yl)-2H-pyrazolo[3,4-d]pyrimidin-2-yl]methyl}phenol] | –
25 | 0.008 | 0.232 | Nc1nc(-c2cnccn2)nc2nn(Cc3cccc(F)c3)cc12 [Example 30, 2-[(3-fluorophenyl)methyl]-6-(pyrazin-2-yl)-2H-pyrazolo[3,4-d]pyrimidin-4-amine] | –
26 | 0.013 | 0.145 | Nc1nc(-c2ccsn2)nc2nn(Cc3cc(Cl)ccc3Cl)cc12 [Example 20, 2-[(2,5-dichlorophenyl)methyl]-6-(1,2-thiazol-3-yl)-2H-pyrazolo[3,4-d]pyrimidin-4-amine] | –
27 | 0.015 | 0.118 | Nc1nc(-c2ccsn2)nc2nn(Cc3cccc(F)c3)cc12 [Example 29, 2-[(3-fluorophenyl)methyl]-6-(1,2-thiazol-3-yl)-2H-pyrazolo[3,4-d]pyrimidin-4-amine] | –
28 | 0.041 | 0.875 | COc1cccc(Cn2cc3c(N)nc(-c4cscn4)nc3n2)c1 [Example 9, 2-[(3-methoxyphenyl)methyl]-6-(1,3-thiazol-4-yl)-2H-pyrazolo[3,4-d]pyrimidin-4-amine] | –
29 | 0.018 | 0.218 | COc1cc(Cn2cc3c(N)nc(-c4ccsn4)nc3n2)ccc1C [Example 18, 2-[(3-methoxy-4-methylphenyl)methyl]-6-(1,2-thiazol-3-yl)-2H-pyrazolo[3,4-d]pyrimidin-4-amine] | –
30 | 0.0043 | 0.213 | COc1ccccc1Cn1cc2c(N)nc(-c3ncco3)nc2n1 [Example 39, 2-[(2-methoxyphenyl)methyl]-6-(1,3-oxazol-2-yl)-2H-pyrazolo[3,4-d]pyrimidin-4-amine] | –
31 | 0.018 | 0.407 | COc1cc(C)ccc1Cn1cc2c(N)nc(-c3ccsn3)nc2n1 [Example 25, 2-[(2-methoxy-4-methylphenyl)methyl]-6-(1,2-thiazol-3-yl)-2H-pyrazolo[3,4-d]pyrimidin-4-amine] | –

Row | SMILES | IC50 [1] [µM] | EC50 [2] [µM] | also measured
32 | COc1cccc(Cn2cc3c(N)nc(-c4cnccn4)nc3n2)c1 [Example 2, 2-[(3-methoxyphenyl)methyl]-6-(pyrazin-2-yl)-2H-pyrazolo[3,4-d]pyrimidin-4-amine] | 0.0067 | 1.53 | –
